The subject of one experiment is Cercospora arachidicola. In words: Peanut early leafspot control on sprayed peanut seedlings (Example 84). As to conditions: Mycosphaerella arachidis, 360 h, 100 ppm spray, day before inoculation; read-out: % Control Peanut Easly Leafspot. In kind it is in vivo.
The subject of a further experiment is Erysiphe cichoracearum. Description: Cucumber powdery mildew control on sprayed cucumber seedlings (Example 80). The format is in vivo. Conditions: Golovinomyces cichoracearum, 168 h, 100 ppm spray, day before inoculation.
In a further experiment the test system is Erysiphe graminis. Description: Barley powdery mildew control on sprayed barley seedlings (Example 81). The format is in vivo. Conditions: Blumeria graminis, 168 h; 100 ppm spray, day before inoculation. The method, then:
The compounds of the previous examples were again dissolved in acetone in an amount equal to 6% of the final volume and then suspended at a concentration of 100 ppm in purified water containing 250 ppm of the surfactant TREM 014 (polyhydric alcohol esters). These suspensions were sprayed to the point of run-off on barley seedlings. The following day, the plants were inoculated with a spore suspension of the fungus Erysiphe graminis, causal agent of barley powdery mildew, and incubated in growth room for 7 days. Disease ratings were then made. Treated plants from successful treatments had little or no powdery mildew in contrast to untreated plants which were covered with powdery mildew.

For another experiment, the system named is Monilinia fructicola. Description: Stone fruit brown rot control on dipped canned peach halves (Example 86). As to conditions: 120 h, 100 ppm dip, percent growth inhibition of colonies after five days. The text has this: Several compounds of the previous examples were again dissolved in acetone in an amount equal to 5% of the final volume and then suspended at a concentration of 100 ppm in purified water containing 700 ppm of the surfactant TREM 014 (polyhydric alcohol esters). Canned peach halves were dipped in this suspension for three minutes and then placed to air dry in sterile containers. Upon drying, the peach halves were inoculated with two pieces of Monilinia fructicola mycelium, causal agent of stone fruit brown rot, and incubated in the sterile containers for five days. At that time the radii of the colonies' growth were measured on each peach. […] Percent disease control (percent growth inhibition of colonies on treated peaches as compared to that of colonies on untreated peaches) is expressed in the table below.

Another experiment relates to Pyricularia oryzae. In words: whole plant or invertebrate. In kind it is in vivo. As to conditions: Pyricularia oryzae, 168 h, read-out: % Control of Rice Blast, 100 ppm spray, day before inoculation.
A further experiment concerns Venturia inaequalis. Description: Apple scab control on sprayed apple seedlings (Example 82). In kind it is in vivo. As to conditions: Venturia inaequalis, 100 ppm spray, day before inoculation.
The next experiment deals with Helminthosporium maydis. Description: Southern corn leaf blight control on sprayed corn seedlings (Example 83). The format is in vivo. Conditions: Bipolaris maydis, 192 h, 100 ppm spray, day before inoculation. Put shortly: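 Compounds in 6% acetone at 100 ppm in water with 250 ppm TREM 014 surfactant, sprayed to run-off on corn seedlings; next day inoculated with spore suspension. 24 h at saturated humidity and 20°, then 7 days in growth room before disease rating; phytotoxicity scored as growth reduction.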

In a further experiment the test system is Rhizoctonia solani. Description: Rice sheath blight control on sprayed rice seedlings (Example 87). The format is in vivo. As to conditions: Rhizoctonia solani, 168 h, 100 ppm spray, day before inoculation. Put shortly:
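Rice seedlings were sprayed to run-off with 100 ppm compound suspended in water with 6% acetone and 250 ppm TREM 014 surfactant. They were inoculated next day with bran plus R. solani mycelium. Sheath blight was rated after 7 days in a growth room.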

The test system of a further experiment is Phytophthora infestans. In words: whole plant or invertebrate. As to conditions: Phytophthora infestans, in Solanum lycopersicum, 168 h, read-out: % Control of Tomato Late Blight, 100 ppm spray, day before inoculation. The format is in vivo.
For experiment [1], the system named is Puccinia recondita var. tritici. In words: Wheat leaf rust control on sprayed wheat seedlings (Example 79). Conditions: Puccinia recondita, 168 h; 100 ppm spray, day before inoculation. In kind it is in vivo. The procedure, abridged:
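Wheat seedlings were sprayed to run-off with 100 ppm compound suspended in water with 6% acetone and 250 ppm TREM 014 surfactant. Next day they were inoculated with Puccinia recondita var. tritici spores and held 24 h at saturated humidity, 20°. Rust pustules were rated after a further 7 days in a growth room.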

Experiment [2] deals with Pythium aphanadermatum. Description: Pythium control on corn, seed coating (Example 92). In kind it is in vivo. As to conditions: 504 h, 2 gm/kg seed. The protocol:
Several compounds of the previous examples were incorporated into a proprietary formulation and used to coat corn seeds at a rate of 2 gm/kg seed. After being thoroughly coated, the seeds were allowed to air dry at room temperature. The seeds were then planted into soil amended with a mixture of the fungus Pythium aphanadermatum, sand, and corn meal at a rate sufficient to kill most untreated seeds. The seeds were held at 49° F. for 2 weeks and then at 70° F. for 1 additional week. After this time disease ratings were made.

Experiment [3] relates to Pythium aphanadermatum. Description: Pythium control on cotton, seed coating (Example 91). In kind it is in vivo. As to conditions: 168 h, 2 gm/kg seed. The text has this:
Several compounds of the previous examples were incorporated into a proprietary formulation and used to coat cotton seeds at a rate of 2 gm/kg seed. After being thoroughly coated, the seeds were allowed to air dry at room temperature. The cotton seeds were then planted into soil amended with the fungus Pythium aphanadermatum, sand, and corn meal at a rate sufficient to kill most untreated seeds. The seeds were held at room temperature for 1 week, after which time disease ratings were made.

The record followed here is US4510136A (priority 1983, dated 1985).

As a reminder, the inhibition of growth is the percentage by which the read-out fell short of the control.

Consider `C[Si](C)(Cn1cnnc1)c1ccc(-c2ccccc2)cc1` [(1,1'-Biphenyl-4-yl)dimethyl(4H-1,2,4-triazol-4-ylmethyl)silane], for which the pest or weed control at 100 ppm in the experiment on Cercospora arachidicola was 0%; in the experiment on Erysiphe cichoracearum, 90%; in the experiment on Erysiphe graminis, 0%; in the experiment with Pyricularia oryzae it was 0%; in the experiment on Venturia inaequalis it was 80%; with Helminthosporium maydis, 100%. Besides, the pest or weed control at 100 ppm (in the experiment on Rhizoctonia solani; in the experiment with Phytophthora infestans; in experiment [1]) was 0% throughout. The inhibition of growth at 100 µg/mL with Monilinia fructicola was 96%.

On to `C[Si](Cn1cncn1)(c1ccccc1)c1ccc(-c2ccccc2)cc1` (stereo not shown) [(1,1'-Biphenyl-4-yl)methyl(phenyl)(1H-1,2,4-triazol-1-ylmethyl)silane], for which the pest or weed control at 100 ppm in the experiment with Cercospora arachidicola worked out at 100%; in the experiment with Erysiphe cichoracearum it was 100%; with Pyricularia oryzae, 0%; in the experiment with Venturia inaequalis it was 100%; in the experiment on Helminthosporium maydis, 90%; in the experiment on Rhizoctonia solani, 0%. Further, the pest or weed control at 100 ppm with Phytophthora infestans was 0%; in [1], 100%. In addition, the pest or weed control at 2 g/kg seed in the experiment with Pythium aphanadermatum [2] and in the experiment with Pythium aphanadermatum [3] was 0% in each case.

For `c1ccc([Si](Cn2cncn2)(c2ccccc2)c2ccccc2)cc1` [(1H-1,2,4-Triazol-1-ylmethyl)triphenylsilane], the pest or weed control at 100 ppm in the experiment with Cercospora arachidicola was 0%; in the experiment on Erysiphe cichoracearum, 100%; with Erysiphe graminis, 100%; with Pyricularia oryzae, 0%; with Venturia inaequalis it was 0%; with Helminthosporium maydis it was 0%. For the same compound, the pest or weed control at 100 ppm (in the experiment on Rhizoctonia solani; with Phytophthora infestans; in [1]) was 0% in each case.

On to `COc1ccc([Si](C)(C)Cn2cncn2)cc1` [Dimethyl(4-methoxyphenyl)(1H-1,2,4-triazol-1-ylmethyl)silane], for which the pest or weed control at 100 ppm in the experiment with Cercospora arachidicola came out at 0%; in the experiment on Erysiphe cichoracearum it was 100%; in the experiment on Erysiphe graminis, 100%; with Pyricularia oryzae, 0%; with Venturia inaequalis, 100%; in the experiment on Helminthosporium maydis, 90%. Moreover, the pest or weed control at 100 ppm (in the experiment on Rhizoctonia solani; with Phytophthora infestans; in [1]) was 0% in each case. The inhibition of growth at 100 µg/mL in the experiment on Monilinia fructicola worked out at 97%. Further, the pest or weed control at 2 g/kg seed in the experiment on Pythium aphanadermatum [3] is 0%.

With `C[Si](C)(Cn1cncn1)c1ccccc1` [Dimethyl(phenyl)(1H-1,2,4-triazol-1-ylmethyl)silane], the pest or weed control at 100 ppm with Cercospora arachidicola turned out to be 0%; in the experiment on Erysiphe cichoracearum, 100%; in the experiment on Pyricularia oryzae, 0%; with Venturia inaequalis, 0%; in the experiment on Helminthosporium maydis it was 0%; in the experiment with Phytophthora infestans it was 0%. Moreover, in [1], the pest or weed control at 100 ppm was determined as 90%. Further, the inhibition of growth at 100 µg/mL in the experiment with Monilinia fructicola worked out at 89%. In addition, the pest or weed control at 2 g/kg seed in the experiment on Pythium aphanadermatum [3] is 0%.

For `CC[Si](C)(C)Cn1cncn1` [Ethyldimethyl(1H-1,2,4-triazol-1-ylmethyl)silane], the pest or weed control at 100 ppm with Cercospora arachidicola came out at 0%; with Erysiphe cichoracearum, 100%; in the experiment on Pyricularia oryzae it was 0%; with Venturia inaequalis, 0%; in the experiment with Helminthosporium maydis it was 0%; in the experiment with Phytophthora infestans, 0%. Also, in [1], the pest or weed control at 100 ppm turned out to be 0%. In addition, the pest or weed control at 2 g/kg seed in the experiment with Pythium aphanadermatum [2] worked out at 13%; in the experiment with Pythium aphanadermatum [3] it was 48%.
